The target in data set [1] is T1, hENT1 (Homo sapiens, UniProt Q99808).
T1 sequence (Q99808 1-456): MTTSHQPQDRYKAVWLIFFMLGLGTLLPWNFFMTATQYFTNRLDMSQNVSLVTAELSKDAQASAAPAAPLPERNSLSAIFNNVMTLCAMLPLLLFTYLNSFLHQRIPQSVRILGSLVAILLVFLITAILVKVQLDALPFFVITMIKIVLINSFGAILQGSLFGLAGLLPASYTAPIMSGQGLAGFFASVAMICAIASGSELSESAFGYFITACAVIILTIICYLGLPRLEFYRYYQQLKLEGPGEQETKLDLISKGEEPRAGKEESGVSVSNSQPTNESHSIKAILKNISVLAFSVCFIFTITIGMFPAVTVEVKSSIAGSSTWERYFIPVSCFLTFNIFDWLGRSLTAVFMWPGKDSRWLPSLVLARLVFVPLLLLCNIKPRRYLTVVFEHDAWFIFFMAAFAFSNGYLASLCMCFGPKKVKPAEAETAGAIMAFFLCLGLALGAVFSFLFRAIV
Briefly: Cellular uptake assay of [3H]nucleoside in CEM cells (es activity). It counts as in vitro ADME. More on the design: endogenous in cells. Particulars: compared with uridine. On the procedure: FIG. 1 Comparative uptake of 30 μM [^3H]-troxacitabine in CEM (Panel A) and CEM/ARAC8C (Panel B) cells. [^3H]-Uridine uptake in either the presence or absence of the hENT1 inhibitor, NBMPR or 5 mM non-radioactive uridine was included for comparison as a control substrate.
(§1) Cancer Res., 56: 4187-4191.
The transport of [^3H]uridine was inhibited in the presence either of the hENT1 inhibitor, NBMPR, or excess non-radioactive uridine.

Data set [2] addresses T2, hENT2 (Homo sapiens, UniProt Q14542).
T2 sequence (Q14542 1-456): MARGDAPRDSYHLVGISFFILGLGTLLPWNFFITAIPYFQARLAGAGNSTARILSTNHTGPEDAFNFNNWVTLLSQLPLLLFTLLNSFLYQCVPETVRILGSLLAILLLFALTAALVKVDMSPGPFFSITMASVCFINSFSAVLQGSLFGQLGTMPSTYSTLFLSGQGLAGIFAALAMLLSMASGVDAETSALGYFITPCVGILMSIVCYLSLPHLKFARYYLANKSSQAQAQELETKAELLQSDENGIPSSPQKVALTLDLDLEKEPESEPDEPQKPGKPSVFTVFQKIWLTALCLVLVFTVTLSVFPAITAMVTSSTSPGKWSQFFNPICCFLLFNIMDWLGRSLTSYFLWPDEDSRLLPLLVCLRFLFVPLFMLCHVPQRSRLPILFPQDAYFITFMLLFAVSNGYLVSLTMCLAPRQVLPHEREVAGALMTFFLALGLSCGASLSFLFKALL
Experimental: B.Uptake of [^3H]troxacitabine either in the absence ( ? ) or presence of 100 nM NBMPR (▴), 100 μM dilazep (▾), 1 mM non-radioactive troxacitabine (♦) or 20 μM dipyridamole (●), using an expanded scale of 0-15 pmol/10^6 cells. Each data point represents the mean (±standard deviation) of three determinations.
Briefly, for adherent cells, uptake assays are conducted at room temperature under zero-trans conditions in either sodium-containing transport buffer (20 mM Tris/HCl, 3 mM K2HPO4, 1 mM MgCl2.6H2O, 2 mM CaCl2, 5 mM glucose and 130 mM NaCl, pH 7.4, 300±15 mOsm) or sodium-free transport buffer with NaCl replaced by N-methyl-D-glucamine. […] After the plates are drained, the cells are lysed with 5% Triton X-100 and mixed with Ecolite scintillation fluid to measure the cell-associated radioactivity (Beckman LS 6500 scintillation counter; Beckman-Coulter Canada, Mississauga, ON). Uptake at the zero time-point is determined by treating cells for 10 min at 4° C. with transport buffer containing 100 μM dilazep, then adding the radioactive nucleoside for 2 s before reaction termination as described above. […] Uptake at the zero time-point is determined by adding cells to cold transport buffer containing radiolabeled permeant and dilazep, and immediate centrifugation. Cell pellets are lysed and cell-associated radioactivity measured. […]

Data set [3] addresses T3, hCNT1 (Homo sapiens, UniProt O00337).
T3 construct: expressed in transfected cells; host or cells: HeLa cells, transient transfection with pcDNA3-hCNT1
T3 sequence (O00337 1-649): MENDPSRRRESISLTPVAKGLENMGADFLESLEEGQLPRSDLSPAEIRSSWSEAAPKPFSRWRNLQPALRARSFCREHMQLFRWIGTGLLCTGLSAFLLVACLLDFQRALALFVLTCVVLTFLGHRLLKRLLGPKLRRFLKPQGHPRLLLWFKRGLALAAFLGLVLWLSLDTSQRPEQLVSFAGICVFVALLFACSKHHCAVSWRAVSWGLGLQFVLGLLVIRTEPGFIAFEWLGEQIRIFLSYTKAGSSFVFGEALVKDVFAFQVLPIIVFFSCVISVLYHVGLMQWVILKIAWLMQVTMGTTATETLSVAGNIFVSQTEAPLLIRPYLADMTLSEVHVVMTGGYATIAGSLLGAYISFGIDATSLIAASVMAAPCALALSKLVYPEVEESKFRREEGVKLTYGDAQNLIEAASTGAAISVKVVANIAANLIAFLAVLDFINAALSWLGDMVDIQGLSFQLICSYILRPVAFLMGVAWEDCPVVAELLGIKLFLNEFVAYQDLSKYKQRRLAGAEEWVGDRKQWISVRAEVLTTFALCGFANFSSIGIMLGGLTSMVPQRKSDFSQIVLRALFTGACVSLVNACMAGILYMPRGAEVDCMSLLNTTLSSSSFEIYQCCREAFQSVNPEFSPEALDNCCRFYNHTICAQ
Briefly: Uptake by recombinant transporter in transiently transfected HeLa cells. The following applies: 10 μM, 100 μM dilazep. In kind it is in vitro ADME. On the procedure: Transport assays were conducted in the presence of the equilibrative transport inhibitor, 100 μM dilazep and either in the presence ( ? ) or absence (▴) of […].sodium, and compared to HeLa cells transiently transfected with the empty vector control plasmic (▾).
as §1
Expression plasmids encoding recombinant hCNT1 and hCNT2 are prepared using conventional methods. […] The expression vectors are separately introduced into actively proliferating HeLa cells, following conventional methods. See, e.g., Fang et al (1996).
Recombinant hCNT1 and hCNT2 were separately introduced into HeLa cells by transient transfection of pcDNA3 plasmids containing the coding sequences of the relevant nucleoside transporter protein. […] Uptake of 10 μM [^3H]troxacitabine was not mediated either by hCNT1 or by hCNT2. Troxacitabine uptake by cib-activity (hCNT3) in differentiated HL-60 cells: […]

In data set [4] the test system is CEM/dCK cells. Briefly: CellTiter 96 cell proliferation assay (chemosensitivity), 48 h. It counts as cell-based. Particulars: read-out: EC50 (50% of the dose response curve), 48 h exposure. On the procedure:
(§2) The chemosensitivity of suspension cells lines (e.g., CEM or CEM-derivatives) is assessed using the CellTiter 96 ? proliferation assay. […] Adherent cell lines (e.g., DU145 or DU145^R) are seeded (^˜10^5 cells) in triplicate dishes, 24 h before drug exposure. Growth inhibition is determined by trypsinization and counting cells electronically.

Data set [5] concerns CEM cells. The data set is described as above. In kind it is cell-based. On the procedure:
as §2

Data set [6] relates to CEM/ARAC8C cells. Described as above. In kind it is cell-based. The following applies: read-out: EC50 (50% of the dose response curve); CEM/ARAC8C cells, 48 h exposure. On the procedure: as §2

SMILES strings stand for the structures.

In the case of `Nc1ccn([C@@H]2CO[C@H](CO)O2)c(=O)n1` [Troxacitabine, troxacitabine], in data set [1], the “uptake of [3H]nucleoside over the 6-min time course” value is reported as “taken up to a lesser degree”. Moreover, the “inhibition of uptake by NBMPR, dilazep, dipyridamole or excess non-radioactive troxacitabine” value in data set [2] is recorded as “no substantial inhibition”. The “uptake mediated by hCNT1” value in data set [3] is “not mediated”. Moreover, the EC50 in data set [4] was over 100000 nM; in data set [5] (Homo sapiens, CCRF-CEM, read-out: EC50 (50% of the dose response curve), CEM cells, 48 h exposure), 160 nM; in data set [6], 1180 nM. The “effect of the es transport inhibitor NBMPR on resistance of CEM cells” value in data set [5] (presence of NBMPR) is given as “not”.

The values are drawn from US20030013660A1, “Dioxolane analogs for improved inter-cellular delivery” (Shire BioChem Inc., priority 2000, published 2003).
